Experimental data: US20160158376A1 (priority 2013, published 2016)
Read-outs that look alike come from different tables or passages of the source.

What was measured:
[1] = Solubility assay of the polyconjugate; format: physicochemical; settings: water, room temperature (22˜25° C.), as active drug
Candida albicans = experiment: Pharmacodynamic assay, immunodepleted mice infected with Candida albicans; format: in vivo; settings: for Number of animal death: mice (20 per group), tail vein, day 7
From the text: Method: Mice whose immunity was depleted by conventional method (white cell count≦100) were infected with Candida albicans, and randomly divided into eight groups, 20 per group. Mice received the treatment outlined in the following table by injection through the tail vein. […] Continuously monitoring animal survival for seven days, and counting the number of dead mice on day 7.

[2] = rat, cited from earlier work
[3] = mouse; Proffitt et al. 1991; cited from earlier work
[4] = cited from earlier work

## amphotericin B-hydroxyethyl starch polyconjugate [Preparation 22]
[1]
  solubility (amount of the soluble active drug): 0.026%

## CC1O[C@@H](O[C@H]2/C=C/C=C/C=C/C=C/C=C/C=C/C=C/[C@H](C)[C@@H](O)[C@@H](C)[C@H](C)OC(=O)C[C@H](O)C[C@H](O)CC[C@@H](O)[C@H](O)C[C@H](O)C[C@]3(O)C[C@H](O)[C@@H](C(=O)O)[C@H](C2)O3)C(O)C(N)[C@@H]1O (stereo partly drawn) [amphotericin B]
Candida albicans; 1 mg/kg as amphotericin B
  Number of animal death: 10 dead
Candida albicans; 2 mg/kg as amphotericin B
  Number of animal death: 3 dead
Candida albicans; mice infected with Candida albicans, survival at day 7, as amphotericin B
  50% effective dose: about 1 mg/kg
[2]; intravenous, Pfizer material safety data sheet
  LD50: 1.6 mg/kg
[2]; Proffitt et al. 1991
  LD50: 1.6 mg/kg
[3]
  LD50: 2.3 mg/kg
[4]
  solubility in water: insoluble

## poly-aspartic acid-amphotericin B polyconjugate [Preparation 1]
Candida albicans; 0.25 mg/kg as amphotericin B
  Number of animal death: 5 dead
Candida albicans; 0.5 mg/kg as amphotericin B
  Number of animal death: 0 dead
Candida albicans; 1 mg/kg as amphotericin B
  Number of animal death: 0 dead
Candida albicans; 2 mg/kg as amphotericin B
  Number of animal death: 0 dead
